Tests used:
[1] = target: Serine/threonine-protein kinase PAK 5 (Homo sapiens) (UniProt Q9P286); conditions: Compound concentration 1000.0 nM
[2] = target: 5-hydroxytryptamine receptor 1A (Homo sapiens) (UniProt P08908); conditions: Compound concentration 10.0 uM
[3] = target: Serine/threonine-protein kinase 36 (Homo sapiens) (UniProt Q9NRP7); conditions: Compound concentration 1000.0 nM
[4] = target: Serine/threonine-protein kinase 32B (Homo sapiens) (UniProt Q9NY57); conditions: Compound concentration 1000.0 nM
[5] = target: T1, Serine/threonine-protein kinase 3 (Homo sapiens) (UniProt Q13188); conditions: Compound concentration 1000.0 nM
T1 sequence (whole entry): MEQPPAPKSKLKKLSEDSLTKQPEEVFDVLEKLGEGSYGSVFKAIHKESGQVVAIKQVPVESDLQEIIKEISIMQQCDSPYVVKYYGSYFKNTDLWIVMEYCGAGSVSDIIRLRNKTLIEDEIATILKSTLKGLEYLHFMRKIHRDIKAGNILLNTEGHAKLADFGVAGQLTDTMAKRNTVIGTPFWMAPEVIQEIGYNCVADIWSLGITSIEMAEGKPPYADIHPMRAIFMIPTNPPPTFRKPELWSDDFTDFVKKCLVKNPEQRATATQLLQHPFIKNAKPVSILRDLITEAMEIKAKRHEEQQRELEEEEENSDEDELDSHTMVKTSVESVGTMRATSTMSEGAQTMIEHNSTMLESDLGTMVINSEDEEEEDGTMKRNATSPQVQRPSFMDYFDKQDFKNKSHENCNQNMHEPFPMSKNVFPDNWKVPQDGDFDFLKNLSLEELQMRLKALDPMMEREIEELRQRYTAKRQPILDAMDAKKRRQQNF

[6] = target: SRSF protein kinase 3 (Homo sapiens) (UniProt Q9UPE1); conditions: Compound concentration 1000.0 nM
[7] = target: T2, NUAK family SNF1-like kinase 1 (Homo sapiens) (UniProt O60285); conditions: Compound concentration 1000.0 nM
T2 sequence (whole entry): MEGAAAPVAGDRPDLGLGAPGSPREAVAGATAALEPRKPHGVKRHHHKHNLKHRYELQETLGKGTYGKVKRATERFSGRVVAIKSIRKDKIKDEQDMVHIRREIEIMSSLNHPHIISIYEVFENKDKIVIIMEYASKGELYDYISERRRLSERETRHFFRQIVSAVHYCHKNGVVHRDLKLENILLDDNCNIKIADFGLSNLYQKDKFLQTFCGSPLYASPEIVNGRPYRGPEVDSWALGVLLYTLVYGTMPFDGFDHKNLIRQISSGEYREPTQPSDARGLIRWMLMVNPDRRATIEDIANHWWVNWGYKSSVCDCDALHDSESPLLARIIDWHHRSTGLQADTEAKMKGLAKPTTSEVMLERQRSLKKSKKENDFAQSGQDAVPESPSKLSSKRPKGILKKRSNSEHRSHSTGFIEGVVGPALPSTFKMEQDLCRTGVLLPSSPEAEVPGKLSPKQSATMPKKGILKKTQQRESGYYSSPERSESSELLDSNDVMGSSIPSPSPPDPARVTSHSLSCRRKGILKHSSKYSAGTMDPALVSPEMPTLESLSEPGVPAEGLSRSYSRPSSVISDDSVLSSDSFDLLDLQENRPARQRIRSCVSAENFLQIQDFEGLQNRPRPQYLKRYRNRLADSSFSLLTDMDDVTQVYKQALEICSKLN

[8] = target: T3, G protein-coupled receptor kinase 3 (Homo sapiens) (UniProt P35626); conditions: Compound concentration 1000.0 nM
T3 sequence (whole entry): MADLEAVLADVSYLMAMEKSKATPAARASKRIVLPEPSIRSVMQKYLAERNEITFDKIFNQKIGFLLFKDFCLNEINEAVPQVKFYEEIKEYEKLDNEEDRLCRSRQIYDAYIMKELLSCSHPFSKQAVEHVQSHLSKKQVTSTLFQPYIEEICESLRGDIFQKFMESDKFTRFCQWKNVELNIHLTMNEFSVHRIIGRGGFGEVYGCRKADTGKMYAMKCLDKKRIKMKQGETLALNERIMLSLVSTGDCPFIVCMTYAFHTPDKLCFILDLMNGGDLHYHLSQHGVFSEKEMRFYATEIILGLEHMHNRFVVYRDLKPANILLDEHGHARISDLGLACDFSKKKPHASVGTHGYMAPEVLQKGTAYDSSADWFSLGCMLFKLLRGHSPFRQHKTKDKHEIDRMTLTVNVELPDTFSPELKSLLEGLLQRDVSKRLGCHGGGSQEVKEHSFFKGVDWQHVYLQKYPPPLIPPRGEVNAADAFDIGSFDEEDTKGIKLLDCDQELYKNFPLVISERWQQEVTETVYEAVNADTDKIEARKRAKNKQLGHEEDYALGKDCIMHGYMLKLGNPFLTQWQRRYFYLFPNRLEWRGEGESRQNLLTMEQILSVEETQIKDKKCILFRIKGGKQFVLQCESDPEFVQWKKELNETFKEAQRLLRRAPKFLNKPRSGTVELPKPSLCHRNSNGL

[9] = target: Serine/threonine-protein kinase DCLK1 (Homo sapiens) (UniProt O15075); conditions: Compound concentration 1000.0 nM
[10] = tested on: Mast/stem cell growth factor receptor Kit (Homo sapiens), P10721 [D816H]; conditions: Compound concentration 1000.0 nM
[11] = target: Homeodomain-interacting protein kinase 1 (Homo sapiens) (UniProt Q86Z02); conditions: Compound concentration 1000.0 nM
Homeodomain-interacting protein kinase 1 (Homo sapiens), sequence (Q86Z02 whole entry, looked up): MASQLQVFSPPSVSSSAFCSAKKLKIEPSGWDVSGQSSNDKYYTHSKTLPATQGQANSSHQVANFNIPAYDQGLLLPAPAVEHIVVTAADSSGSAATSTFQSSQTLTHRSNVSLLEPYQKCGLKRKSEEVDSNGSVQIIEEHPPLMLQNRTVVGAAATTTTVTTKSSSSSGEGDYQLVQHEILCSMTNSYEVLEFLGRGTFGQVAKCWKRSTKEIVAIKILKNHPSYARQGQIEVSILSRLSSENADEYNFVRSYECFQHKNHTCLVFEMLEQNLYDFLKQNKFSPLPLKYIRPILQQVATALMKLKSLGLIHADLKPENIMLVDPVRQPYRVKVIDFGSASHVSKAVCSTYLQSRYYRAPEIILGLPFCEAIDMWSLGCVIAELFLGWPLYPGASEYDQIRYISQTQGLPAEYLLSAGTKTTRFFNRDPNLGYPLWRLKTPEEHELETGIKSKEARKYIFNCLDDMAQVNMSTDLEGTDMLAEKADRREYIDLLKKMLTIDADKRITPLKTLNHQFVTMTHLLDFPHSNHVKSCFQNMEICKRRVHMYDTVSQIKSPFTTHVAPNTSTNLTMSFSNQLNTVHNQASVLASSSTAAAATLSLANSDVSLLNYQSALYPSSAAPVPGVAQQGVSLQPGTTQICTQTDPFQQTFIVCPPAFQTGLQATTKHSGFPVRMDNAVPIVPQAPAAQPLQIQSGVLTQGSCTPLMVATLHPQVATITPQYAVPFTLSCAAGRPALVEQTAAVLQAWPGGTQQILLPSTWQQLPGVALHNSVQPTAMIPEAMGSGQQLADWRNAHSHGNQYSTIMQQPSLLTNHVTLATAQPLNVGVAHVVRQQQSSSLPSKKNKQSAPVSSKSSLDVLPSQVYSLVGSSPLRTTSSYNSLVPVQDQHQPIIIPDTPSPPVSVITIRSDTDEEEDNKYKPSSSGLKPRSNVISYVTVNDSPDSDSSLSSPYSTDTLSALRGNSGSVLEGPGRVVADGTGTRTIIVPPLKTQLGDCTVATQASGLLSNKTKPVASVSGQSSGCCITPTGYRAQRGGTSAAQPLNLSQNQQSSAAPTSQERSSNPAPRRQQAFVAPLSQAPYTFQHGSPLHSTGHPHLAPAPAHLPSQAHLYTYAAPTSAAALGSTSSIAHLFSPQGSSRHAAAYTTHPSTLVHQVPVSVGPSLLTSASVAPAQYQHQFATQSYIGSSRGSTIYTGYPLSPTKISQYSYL

[12] = target: Death-associated protein kinase 2 (Homo sapiens) (UniProt Q9UIK4); conditions: Compound concentration 1000.0 nM
Death-associated protein kinase 2 (Homo sapiens), sequence (Q9UIK4 whole entry, looked up): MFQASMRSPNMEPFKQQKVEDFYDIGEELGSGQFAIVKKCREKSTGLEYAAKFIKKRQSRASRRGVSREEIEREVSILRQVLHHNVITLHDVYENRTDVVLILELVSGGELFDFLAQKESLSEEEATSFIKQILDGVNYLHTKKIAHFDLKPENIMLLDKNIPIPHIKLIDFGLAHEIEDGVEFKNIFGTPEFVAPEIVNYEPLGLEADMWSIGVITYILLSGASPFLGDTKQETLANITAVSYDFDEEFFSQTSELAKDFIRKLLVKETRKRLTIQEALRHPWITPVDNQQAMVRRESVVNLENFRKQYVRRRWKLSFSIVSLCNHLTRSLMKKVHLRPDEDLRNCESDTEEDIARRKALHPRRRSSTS

[13] = target: Serine/threonine-protein kinase TNNI3K (Homo sapiens) (UniProt Q59H18); conditions: Compound concentration 1000.0 nM
Serine/threonine-protein kinase TNNI3K (Homo sapiens), sequence (Q59H18 whole entry): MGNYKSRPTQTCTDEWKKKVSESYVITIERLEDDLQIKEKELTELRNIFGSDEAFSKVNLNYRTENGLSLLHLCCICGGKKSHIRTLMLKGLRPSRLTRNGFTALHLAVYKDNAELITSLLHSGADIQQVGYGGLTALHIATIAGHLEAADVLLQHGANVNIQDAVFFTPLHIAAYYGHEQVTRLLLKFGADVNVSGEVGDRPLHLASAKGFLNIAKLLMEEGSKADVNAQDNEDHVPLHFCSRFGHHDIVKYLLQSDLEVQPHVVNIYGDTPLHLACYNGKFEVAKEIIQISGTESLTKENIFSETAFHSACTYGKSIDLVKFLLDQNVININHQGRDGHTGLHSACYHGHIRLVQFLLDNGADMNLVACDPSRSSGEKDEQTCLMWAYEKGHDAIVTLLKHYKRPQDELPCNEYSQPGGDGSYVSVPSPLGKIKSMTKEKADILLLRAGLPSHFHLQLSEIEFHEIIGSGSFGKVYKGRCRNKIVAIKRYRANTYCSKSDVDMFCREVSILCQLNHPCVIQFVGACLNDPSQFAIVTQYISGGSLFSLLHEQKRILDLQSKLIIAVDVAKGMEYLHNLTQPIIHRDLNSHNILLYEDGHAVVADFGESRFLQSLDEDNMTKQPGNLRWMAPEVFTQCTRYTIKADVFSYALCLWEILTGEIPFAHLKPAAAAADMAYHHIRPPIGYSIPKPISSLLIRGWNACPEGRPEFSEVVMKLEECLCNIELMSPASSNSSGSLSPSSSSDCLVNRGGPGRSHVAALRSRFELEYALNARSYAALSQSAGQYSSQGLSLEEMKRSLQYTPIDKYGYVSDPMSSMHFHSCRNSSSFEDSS

[14] = tested on: Epidermal growth factor receptor (Homo sapiens), P00533 [UNDEFINED MUTATION]; conditions: Compound concentration 1000.0 nM
[15] = target: T4, Serine/threonine-protein kinase 17B (Homo sapiens) (UniProt O94768); conditions: Compound concentration 1000.0 nM
T4 sequence (whole entry): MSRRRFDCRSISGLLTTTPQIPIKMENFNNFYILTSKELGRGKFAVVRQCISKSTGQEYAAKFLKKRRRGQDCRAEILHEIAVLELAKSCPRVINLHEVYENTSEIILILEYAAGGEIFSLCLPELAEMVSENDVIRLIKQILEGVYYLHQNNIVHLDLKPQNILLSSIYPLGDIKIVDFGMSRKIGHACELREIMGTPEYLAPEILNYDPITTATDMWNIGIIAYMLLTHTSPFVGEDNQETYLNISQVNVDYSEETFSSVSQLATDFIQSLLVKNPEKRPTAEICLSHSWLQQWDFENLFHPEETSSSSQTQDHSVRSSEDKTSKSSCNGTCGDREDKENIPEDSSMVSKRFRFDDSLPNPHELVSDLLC

Serine/threonine-protein kinase PAK 5 (Homo sapiens), sequence (Q9P286 whole entry, looked up): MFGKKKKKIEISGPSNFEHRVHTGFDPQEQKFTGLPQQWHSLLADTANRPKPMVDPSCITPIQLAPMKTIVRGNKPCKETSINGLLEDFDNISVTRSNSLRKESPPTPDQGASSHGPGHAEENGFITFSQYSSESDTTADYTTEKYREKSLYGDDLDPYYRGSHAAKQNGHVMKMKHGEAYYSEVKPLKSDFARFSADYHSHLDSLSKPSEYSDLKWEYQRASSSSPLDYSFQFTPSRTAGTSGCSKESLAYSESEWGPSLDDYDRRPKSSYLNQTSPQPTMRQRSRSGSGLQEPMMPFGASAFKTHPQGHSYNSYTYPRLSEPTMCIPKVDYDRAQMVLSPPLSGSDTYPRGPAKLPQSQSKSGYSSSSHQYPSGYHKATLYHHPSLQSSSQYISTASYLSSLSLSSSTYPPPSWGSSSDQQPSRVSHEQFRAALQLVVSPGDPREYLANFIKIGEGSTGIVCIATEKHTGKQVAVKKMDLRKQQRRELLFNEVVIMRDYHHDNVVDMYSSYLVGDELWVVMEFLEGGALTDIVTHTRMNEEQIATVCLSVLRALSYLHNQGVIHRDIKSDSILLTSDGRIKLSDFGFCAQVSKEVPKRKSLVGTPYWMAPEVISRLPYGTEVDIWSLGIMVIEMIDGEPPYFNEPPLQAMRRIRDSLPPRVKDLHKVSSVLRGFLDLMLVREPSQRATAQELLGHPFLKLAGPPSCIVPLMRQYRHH
5-hydroxytryptamine receptor 1A (Homo sapiens), sequence (P08908 whole entry): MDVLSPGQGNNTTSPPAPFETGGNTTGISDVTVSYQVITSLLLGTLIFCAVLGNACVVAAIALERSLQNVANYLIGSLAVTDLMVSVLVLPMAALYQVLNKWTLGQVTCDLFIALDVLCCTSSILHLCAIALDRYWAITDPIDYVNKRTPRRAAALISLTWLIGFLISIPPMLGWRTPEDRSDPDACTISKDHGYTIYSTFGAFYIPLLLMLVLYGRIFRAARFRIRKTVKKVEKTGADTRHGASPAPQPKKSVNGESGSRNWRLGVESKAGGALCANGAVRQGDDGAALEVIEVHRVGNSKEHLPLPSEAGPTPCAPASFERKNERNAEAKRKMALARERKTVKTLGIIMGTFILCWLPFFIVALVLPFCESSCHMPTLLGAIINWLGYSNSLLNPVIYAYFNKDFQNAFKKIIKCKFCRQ
Serine/threonine-protein kinase 36 (Homo sapiens), sequence (Q9NRP7 whole entry): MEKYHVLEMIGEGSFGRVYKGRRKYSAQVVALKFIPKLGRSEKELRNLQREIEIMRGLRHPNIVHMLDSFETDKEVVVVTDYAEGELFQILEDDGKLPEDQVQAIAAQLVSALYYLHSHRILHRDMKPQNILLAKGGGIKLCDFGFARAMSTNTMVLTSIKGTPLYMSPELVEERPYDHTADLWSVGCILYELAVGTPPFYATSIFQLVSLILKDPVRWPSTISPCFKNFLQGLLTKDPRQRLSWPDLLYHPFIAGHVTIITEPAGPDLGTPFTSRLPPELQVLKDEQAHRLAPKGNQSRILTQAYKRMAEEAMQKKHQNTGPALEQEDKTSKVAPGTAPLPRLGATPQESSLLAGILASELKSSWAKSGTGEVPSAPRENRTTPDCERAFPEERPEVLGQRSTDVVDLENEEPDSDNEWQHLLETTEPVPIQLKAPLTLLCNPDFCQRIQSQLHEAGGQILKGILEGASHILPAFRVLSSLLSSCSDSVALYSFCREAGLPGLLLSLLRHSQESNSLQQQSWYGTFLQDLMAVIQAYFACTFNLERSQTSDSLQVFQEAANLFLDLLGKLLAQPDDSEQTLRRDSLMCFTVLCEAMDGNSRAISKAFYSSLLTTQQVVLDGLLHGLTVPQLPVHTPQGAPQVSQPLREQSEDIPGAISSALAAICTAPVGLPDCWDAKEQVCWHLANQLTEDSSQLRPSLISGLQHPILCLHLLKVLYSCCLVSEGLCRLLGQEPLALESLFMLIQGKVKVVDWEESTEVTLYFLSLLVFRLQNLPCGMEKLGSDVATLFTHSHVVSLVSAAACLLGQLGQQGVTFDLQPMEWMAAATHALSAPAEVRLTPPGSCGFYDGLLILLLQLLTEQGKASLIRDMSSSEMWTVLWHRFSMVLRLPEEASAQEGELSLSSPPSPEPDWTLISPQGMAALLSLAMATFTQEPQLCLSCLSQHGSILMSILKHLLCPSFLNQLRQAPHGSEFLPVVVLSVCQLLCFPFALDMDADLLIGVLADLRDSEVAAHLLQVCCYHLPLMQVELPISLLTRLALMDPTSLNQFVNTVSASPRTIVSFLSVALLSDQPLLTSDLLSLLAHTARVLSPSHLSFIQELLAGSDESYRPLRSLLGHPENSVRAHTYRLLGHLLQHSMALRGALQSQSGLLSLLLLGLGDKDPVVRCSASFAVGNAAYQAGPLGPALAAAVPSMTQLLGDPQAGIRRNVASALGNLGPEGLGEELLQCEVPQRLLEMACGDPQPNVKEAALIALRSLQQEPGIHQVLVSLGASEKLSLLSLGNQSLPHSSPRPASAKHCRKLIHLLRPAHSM

Cc1nc(C2CCN(C(=O)c3ccc(OC(F)(F)F)cc3N)CC2)c2ncc(N3CCN(C)CC3)cc2n1 [BAY-693]
inactive: residual activity [1] 99% | inhibition [2] -3.88% | residual activity [3] 100% | residual activity [4] 90% | residual activity [5] 79% | residual activity [6] 100% | residual activity [7] 95% | residual activity [8] 93% | residual activity [9] 85% | residual activity [10] 100% | residual activity [11] 100% | residual activity [12] 100% | residual activity [13] 100% | residual activity [14] 100% | residual activity [15] 99%

CN1CCN(c2cnc3c(C4CCN(C(=O)c5ccc(OC(F)(F)F)cc5N)CC4)ncnc3c2)CC1 [BAY-885]
inactive: residual activity [1] 100% | inhibition [2] 7.38% | residual activity [3] 75% | residual activity [4] 87% | residual activity [5] 82% | residual activity [6] 100% | residual activity [7] 100% | residual activity [8] 89% | residual activity [9] 85% | residual activity [10] 100% | residual activity [11] 99% | residual activity [12] 90% | residual activity [13] 100% | residual activity [14] 100% | residual activity [15] 86%

— ChEMBL document CHEMBL4507268 (2021)
